Measured values reported in US20140128599A1, “BENZOXAZOLE KINASE INHIBITORS AND METHODS OF USE” (Intellikine LLC La Jolla, priority 2008, published 2014).

Assays:
Type in all cases: biochemical
PI3K γ = target: T1, PI3K γ (Homo sapiens, UniProt P48736); assay: PI3K kinase inhibition assay (p110γ)
T1 construct: purchased Sigma
Experimental: IC50 values are measured using either a standard TLC assay for lipid kinase activity (described below) or a high-throughput membrane capture assay. Kinase reactions are performed by preparing a reaction mixture containing kinase, inhibitor (2% DMSO final concentration), buffer (25 mM HEPES, pH 7.4, 10 mM MgCl2), and freshly sonicated phosphatidylinositol (100 μg/ml). Reactions are initiated by the addition of ATP containing 10 μCi of γ-32P-ATP to a final concentration 10 or 100 μM and allowed to proceed for 5 minutes at room temperature. For TLC analysis, reactions are then terminated by the addition of 105 μl 1N HCl followed by 160 μl CHCl3:MeOH (1:1). The biphasic mixture is vortexed, briefly centrifuged, and the organic phase is transferred to a new tube using a gel loading pipette tip precoated with CHCl3. […] The TLC plates are then dried, exposed to a phosphorimager screen (Storm, Amersham), and quantitated.
Briefly, the assay is a time resolved FRET assay that indirectly measures PIP3 product formed by the activity of a PI3-K. The kinase reaction is performed in a microtitre plate (e.g., a 384 well microtitre plate). The total reaction volume is approximately 20 ul per well. In the first step, each well receives 2 ul of test compound in 20% dimethylsulphoxide resulting in a 2% DMSO final concentration. Next, approximately 14.5 ul of a kinase/PIP2 mixture (diluted in 1× reaction buffer) is added per well for a final concentration of 0.25-0.3 ug/ml kinase and 10 uM PIP2. The plate is sealed and incubated for 15 minutes at room temperature. To start the reaction, 3.5 ul of ATP (diluted in 1× reaction buffer) is added per well for a final concentration of 10 uM ATP. The plate is sealed and incubated for 1 hour at room temperature. The reaction is stopped by adding 5 ul of Stop Solution per well and then 5 ul of Detection Mix is added per well. The plate is sealed, incubated for 1 hour at room temperature, and then read on an appropriate plate reader. Data is analyzed and IC50s are generated using GraphPad Prism 5.

PI3K δ = target: T2, PI3K δ (Homo sapiens, UniProt O00329); assay: PI3K kinase inhibition assay (p110δ/p85α)
T2 construct: purchased Upstate

mTOR = target: T3, mTOR (Homo sapiens, UniProt P42345); assay: mTOR kinase inhibition assay
T3 construct: purchased Invitrogen
Experimental: The compounds described herein can be tested against recombinant mTOR (Invitrogen) in an assay containing 50 mM HEPES, pH 7.5, 1 mM EGTA, 10 mM MgCl2, 2.5 mM, 0.01% Tween, 10 μM ATP (2.5 μCi of μ-32P-ATP), and 3 μg/mL BSA. Rat recombinant PHAS-1/4EBP1 (Calbiochem; 2 mg/mL) is used as a substrate. Reactions are terminated by spotting onto nitrocellulose, which is washed with 1M NaCl/1% phosphoric acid (approximately 6 times, 5-10 minutes each). Sheets are dried and the transferred radioactivity quantitated by phosphorimaging.
This assay is a time resolved FRET platform that measures the phosphorylation of GFP labeled 4EBP1 by mTOR kinase. The kinase reaction is performed in a white 384 well microtitre plate. The total reaction volume is 20 ul per well and the reaction buffer composition is 50 mM HEPES pH7.5, 0.01% Polysorbate 20, 1 mM EGTA, 10 mM MnCl2, and 2 mM DTT. In the first step, each well receives 2 ul of test compound in 20% dimethylsulphoxide resulting in a 2% DMSO final concentration. Next, 8 ul of mTOR diluted in reaction buffer is added per well for a 60 ng/ml final concentration. To start the reaction, 10 ul of an ATP/GFP-4EBP1 mixture (diluted in reaction buffer) is added per well for a final concentration of 10 uM ATP and 0.5 uM GFP-4EBP1. The plate is sealed and incubated for 1 hour at room temperature. […] The plate is sealed, incubated for 1 hour at room temperature, and then read on a plate reader set up for LanthaScreen™ TR-FRET. Data is analyzed and IC50s are generated using GraphPad Prism 5.

PI3K α = target: T4, PI3K α (Homo sapiens, UniProt P42336); assay: PI3K kinase inhibition assay (p110α/p85α)
T4 construct: purchased Upstate
T4 sequence (P42336 whole entry): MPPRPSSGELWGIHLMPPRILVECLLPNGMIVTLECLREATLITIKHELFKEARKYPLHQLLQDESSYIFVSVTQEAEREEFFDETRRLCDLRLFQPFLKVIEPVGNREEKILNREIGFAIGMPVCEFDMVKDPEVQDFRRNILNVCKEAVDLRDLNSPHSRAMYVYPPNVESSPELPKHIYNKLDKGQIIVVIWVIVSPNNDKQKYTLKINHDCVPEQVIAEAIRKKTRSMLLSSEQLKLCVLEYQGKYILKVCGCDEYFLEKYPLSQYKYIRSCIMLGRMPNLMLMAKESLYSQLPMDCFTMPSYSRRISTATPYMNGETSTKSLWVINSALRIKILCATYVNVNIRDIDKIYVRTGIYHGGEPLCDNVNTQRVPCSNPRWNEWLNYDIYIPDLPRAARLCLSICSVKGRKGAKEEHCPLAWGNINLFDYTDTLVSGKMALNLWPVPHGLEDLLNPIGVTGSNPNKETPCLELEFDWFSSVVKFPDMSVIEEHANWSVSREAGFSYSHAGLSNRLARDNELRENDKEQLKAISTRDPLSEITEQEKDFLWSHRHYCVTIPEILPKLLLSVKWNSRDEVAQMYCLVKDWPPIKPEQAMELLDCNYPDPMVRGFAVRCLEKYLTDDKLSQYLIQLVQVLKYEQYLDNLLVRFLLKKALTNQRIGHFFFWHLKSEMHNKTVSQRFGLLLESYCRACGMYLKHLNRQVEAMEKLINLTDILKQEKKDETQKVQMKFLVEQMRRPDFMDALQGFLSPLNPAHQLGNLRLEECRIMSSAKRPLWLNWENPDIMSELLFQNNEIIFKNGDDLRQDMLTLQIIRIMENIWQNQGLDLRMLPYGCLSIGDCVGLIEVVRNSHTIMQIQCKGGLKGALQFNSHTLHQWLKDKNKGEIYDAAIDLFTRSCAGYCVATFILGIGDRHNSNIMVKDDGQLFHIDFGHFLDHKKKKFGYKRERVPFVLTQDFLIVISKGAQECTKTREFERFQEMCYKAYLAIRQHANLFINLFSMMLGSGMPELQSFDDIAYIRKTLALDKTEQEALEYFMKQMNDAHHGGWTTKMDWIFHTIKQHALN
T4 sequence (P27986 whole entry partner): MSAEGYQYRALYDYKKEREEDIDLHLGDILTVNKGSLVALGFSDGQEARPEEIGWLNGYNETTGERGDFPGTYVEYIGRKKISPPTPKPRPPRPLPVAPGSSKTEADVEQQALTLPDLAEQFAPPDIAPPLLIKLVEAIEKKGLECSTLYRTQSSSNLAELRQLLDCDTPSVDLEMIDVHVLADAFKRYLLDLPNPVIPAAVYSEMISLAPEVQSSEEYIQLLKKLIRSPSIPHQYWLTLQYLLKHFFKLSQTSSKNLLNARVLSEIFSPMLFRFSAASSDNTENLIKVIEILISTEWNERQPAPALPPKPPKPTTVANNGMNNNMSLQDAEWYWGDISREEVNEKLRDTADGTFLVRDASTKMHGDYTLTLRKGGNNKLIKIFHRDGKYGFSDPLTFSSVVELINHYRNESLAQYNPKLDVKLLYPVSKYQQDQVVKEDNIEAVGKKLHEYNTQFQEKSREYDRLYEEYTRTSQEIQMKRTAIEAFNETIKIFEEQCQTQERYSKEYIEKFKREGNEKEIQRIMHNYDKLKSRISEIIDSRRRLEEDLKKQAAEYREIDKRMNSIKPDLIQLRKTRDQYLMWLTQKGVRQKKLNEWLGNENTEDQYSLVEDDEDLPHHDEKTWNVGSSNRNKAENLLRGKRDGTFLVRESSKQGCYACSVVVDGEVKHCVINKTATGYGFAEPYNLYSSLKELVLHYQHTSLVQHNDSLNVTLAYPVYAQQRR

PI3K β = target: T5, PI3K β (Homo sapiens, UniProt P42338); assay: PI3K kinase inhibition assay (p110β/p85α)
T5 construct: purchased Upstate
T5 sequence (P42338 whole entry): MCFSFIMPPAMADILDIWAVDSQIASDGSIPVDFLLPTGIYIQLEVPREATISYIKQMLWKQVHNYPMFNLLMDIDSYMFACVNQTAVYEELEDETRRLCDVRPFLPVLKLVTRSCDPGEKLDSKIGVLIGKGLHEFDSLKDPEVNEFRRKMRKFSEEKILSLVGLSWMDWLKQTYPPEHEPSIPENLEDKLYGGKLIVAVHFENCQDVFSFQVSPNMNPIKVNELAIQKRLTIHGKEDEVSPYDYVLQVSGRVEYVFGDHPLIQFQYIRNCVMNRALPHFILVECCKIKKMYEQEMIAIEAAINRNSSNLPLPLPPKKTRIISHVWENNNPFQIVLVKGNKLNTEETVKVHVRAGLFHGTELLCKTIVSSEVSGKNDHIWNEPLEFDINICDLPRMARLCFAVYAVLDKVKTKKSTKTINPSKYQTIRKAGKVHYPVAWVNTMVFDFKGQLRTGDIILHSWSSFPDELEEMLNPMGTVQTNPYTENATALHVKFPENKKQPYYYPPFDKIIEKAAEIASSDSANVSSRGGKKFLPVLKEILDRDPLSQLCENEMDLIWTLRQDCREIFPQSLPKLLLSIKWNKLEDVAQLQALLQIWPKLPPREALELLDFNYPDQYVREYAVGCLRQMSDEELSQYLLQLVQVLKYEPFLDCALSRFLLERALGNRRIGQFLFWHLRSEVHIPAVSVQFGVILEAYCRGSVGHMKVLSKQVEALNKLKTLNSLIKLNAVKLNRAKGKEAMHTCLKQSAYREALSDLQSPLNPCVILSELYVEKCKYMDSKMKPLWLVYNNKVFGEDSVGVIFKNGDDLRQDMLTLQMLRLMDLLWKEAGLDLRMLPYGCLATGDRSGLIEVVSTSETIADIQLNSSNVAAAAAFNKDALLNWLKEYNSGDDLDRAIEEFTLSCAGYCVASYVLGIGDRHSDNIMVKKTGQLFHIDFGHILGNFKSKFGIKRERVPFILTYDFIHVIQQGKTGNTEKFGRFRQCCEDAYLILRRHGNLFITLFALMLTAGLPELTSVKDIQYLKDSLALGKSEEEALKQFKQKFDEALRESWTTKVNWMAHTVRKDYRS
T5 sequence (P27986 whole entry partner): as the sequence (P27986 whole entry partner) above

T1 sequence (P48736 whole entry): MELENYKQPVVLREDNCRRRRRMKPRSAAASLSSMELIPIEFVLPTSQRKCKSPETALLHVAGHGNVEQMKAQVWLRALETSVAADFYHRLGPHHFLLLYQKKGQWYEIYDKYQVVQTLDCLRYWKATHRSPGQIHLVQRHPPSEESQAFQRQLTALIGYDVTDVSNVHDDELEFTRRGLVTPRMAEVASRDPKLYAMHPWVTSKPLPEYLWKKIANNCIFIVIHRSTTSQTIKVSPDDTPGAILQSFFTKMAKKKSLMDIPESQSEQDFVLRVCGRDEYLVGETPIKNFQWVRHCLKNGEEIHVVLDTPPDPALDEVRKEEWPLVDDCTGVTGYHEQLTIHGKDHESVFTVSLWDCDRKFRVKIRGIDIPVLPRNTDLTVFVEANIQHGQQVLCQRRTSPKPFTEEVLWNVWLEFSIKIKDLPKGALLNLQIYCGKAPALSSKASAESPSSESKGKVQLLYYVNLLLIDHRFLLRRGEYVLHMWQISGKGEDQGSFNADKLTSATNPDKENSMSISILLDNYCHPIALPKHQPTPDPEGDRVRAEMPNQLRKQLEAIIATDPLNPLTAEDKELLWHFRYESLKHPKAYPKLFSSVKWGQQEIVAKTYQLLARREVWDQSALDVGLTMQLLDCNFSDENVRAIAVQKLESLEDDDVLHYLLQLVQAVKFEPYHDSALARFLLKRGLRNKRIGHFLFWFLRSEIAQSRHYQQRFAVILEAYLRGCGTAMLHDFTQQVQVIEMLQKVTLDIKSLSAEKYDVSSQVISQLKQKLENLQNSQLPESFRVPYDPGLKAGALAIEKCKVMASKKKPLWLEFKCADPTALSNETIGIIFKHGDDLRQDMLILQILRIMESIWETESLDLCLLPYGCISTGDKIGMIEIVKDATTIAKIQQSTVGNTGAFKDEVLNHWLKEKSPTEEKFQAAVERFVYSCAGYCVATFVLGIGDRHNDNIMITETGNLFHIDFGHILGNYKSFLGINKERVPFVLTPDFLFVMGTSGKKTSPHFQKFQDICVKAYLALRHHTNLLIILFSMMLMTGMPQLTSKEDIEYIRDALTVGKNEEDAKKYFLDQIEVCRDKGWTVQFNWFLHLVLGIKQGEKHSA
T2 sequence (O00329 whole entry): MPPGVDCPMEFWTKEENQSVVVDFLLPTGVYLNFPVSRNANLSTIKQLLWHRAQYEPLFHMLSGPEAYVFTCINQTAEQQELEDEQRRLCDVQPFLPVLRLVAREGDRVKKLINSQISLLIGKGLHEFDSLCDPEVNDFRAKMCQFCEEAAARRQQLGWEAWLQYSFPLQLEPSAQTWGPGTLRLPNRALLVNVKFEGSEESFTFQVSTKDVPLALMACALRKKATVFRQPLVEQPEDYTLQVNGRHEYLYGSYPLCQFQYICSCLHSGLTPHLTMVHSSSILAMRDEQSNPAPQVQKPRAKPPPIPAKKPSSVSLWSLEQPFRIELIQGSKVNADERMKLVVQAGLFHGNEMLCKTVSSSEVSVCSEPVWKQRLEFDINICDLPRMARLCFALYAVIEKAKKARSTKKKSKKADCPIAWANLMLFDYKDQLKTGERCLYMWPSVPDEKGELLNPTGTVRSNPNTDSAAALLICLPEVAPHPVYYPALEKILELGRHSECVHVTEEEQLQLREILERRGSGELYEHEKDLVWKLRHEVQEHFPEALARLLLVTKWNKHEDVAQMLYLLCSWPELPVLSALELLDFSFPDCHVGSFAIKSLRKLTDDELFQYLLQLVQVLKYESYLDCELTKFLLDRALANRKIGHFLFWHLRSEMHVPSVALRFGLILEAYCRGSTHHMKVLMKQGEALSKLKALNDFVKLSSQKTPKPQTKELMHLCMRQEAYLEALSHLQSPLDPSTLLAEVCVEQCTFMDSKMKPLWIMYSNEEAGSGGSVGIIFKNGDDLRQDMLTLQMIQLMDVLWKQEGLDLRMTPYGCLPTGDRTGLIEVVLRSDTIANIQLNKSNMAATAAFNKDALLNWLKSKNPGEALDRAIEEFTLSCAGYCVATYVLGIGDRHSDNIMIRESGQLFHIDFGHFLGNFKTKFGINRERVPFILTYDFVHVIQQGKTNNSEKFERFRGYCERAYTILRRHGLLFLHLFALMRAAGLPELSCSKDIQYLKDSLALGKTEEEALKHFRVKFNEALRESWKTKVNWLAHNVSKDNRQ
T2 sequence (P27986 whole entry partner): as the sequence (P27986 whole entry partner) above

Compound | IC50 (PI3K γ) | IC50 (PI3K δ) | IC50 (mTOR) | IC50 (PI3K α) | IC50 (PI3K β)
CC(=O)Nc1nc2cc(-c3nn(C(C)C)c4ncnc(N)c34)ccc2o1 [compound 2] | < 1 µM | < 1 µM | < 0.1 µM | < 10 µM | > 10 µM
CC(=O)Nc1nc2ccc(-c3nn(C(C)C)c4ncnc(N)c34)cc2o1 [compound 3] |  |  |  | > 10 µM | 
CC(C)n1nc(-c2ccc3nc(N)oc3c2)c2c(N)ncnc21 [compound 4] | < 1 µM | < 1 µM | < 1 µM | < 10 µM | < 10 µM
Nc1nc2cc(-c3nn(C4CCOCC4)c4ncnc(N)c34)ccc2o1 [compound 5] | < 0.1 µM | < 1 µM | < 0.1 µM | < 1 µM | < 10 µM
Nc1nc2cc(-c3nn(C4CCC(N5CCOCC5)CC4)c4ncnc(N)c34)ccc2o1 (stereo not drawn) [compound 6] |  | < 1 µM |  |  | > 10 µM
CC(=O)N1CCC(n2nc(-c3ccc4oc(N)nc4c3)c3c(N)ncnc32)CC1 [compound 7] | < 10 µM | < 1 µM |  | < 1 µM | < 10 µM
CC(C)n1cc(-c2ccc3oc(N)nc3c2)c2c(N)ncnc21 [compound 8] | < 1 µM | < 1 µM | < 0.1 µM | < 1 µM | > 10 µM
Nc1nc2cc(-c3cn(C4CCOCC4)c4ncnc(N)c34)ccc2o1 [compound 9] |  |  |  | < 10 µM | > 10 µM
CC(C)n1nc(-c2ccc3onc(N)c3c2)c2c(N)ncnc21 [compound 10] |  |  | < 10 µM |  | 
CC(=O)Nc1noc2cc(-c3nn(C(C)C)c4ncnc(N)c34)ccc12 [compound 11] |  |  | < 1 µM |  | 
CC(C)n1nc(-c2ccc3c(N)noc3c2)c2c(N)ncnc21 [compound 12] |  |  | < 1 µM |  | 
CNc1noc2cc(-c3nn(C(C)C)c4ncnc(N)c34)ccc12 [compound 13] | < 1 µM | < 1 µM | < 10 µM | < 10 µM | 
CC(C)n1nc(-c2ccc3c(NC4CC4)noc3c2)c2c(N)ncnc21 [compound 14] |  | < 10 µM | < 10 µM | < 10 µM | 
CC(C)n1nc(-c2ccc3onc(NC4CC4)c3c2)c2c(N)ncnc21 [compound 16] |  | > 10 µM | > 10 µM | > 10 µM | 
Nc1noc2ccc(-c3nn(CC(=O)N4CCOCC4)c4ncnc(N)c34)cc12 [compound 17] | > 10 µM | > 10 µM | > 10 µM | > 10 µM | 
COC(=O)Nc1noc2ccc(-c3nn(C(C)C)c4ncnc(N)c34)cc12 [compound 19] |  | > 10 µM | < 10 µM |  | > 10 µM
COC(=O)Nc1noc2cc(-c3nn(C(C)C)c4ncnc(N)c34)ccc12 [compound 20] |  | < 10 µM | < 10 µM |  | > 10 µM
Cc1nc(N)c2c(-c3ccc4oc(N)nc4c3)nn(C(C)C)c2n1 [compound 21] | > 10 µM | > 10 µM | < 1 µM | > 10 µM | > 10 µM
CC(CO)n1nc(-c2ccc3oc(N)nc3c2)c2c(N)ncnc21 (stereo not drawn) [compound 23] | < 10 µM | < 10 µM | < 0.1 µM | < 10 µM | > 10 µM
Nc1nc2cc(-c3nn(C4CC(=O)C4)c4ncnc(N)c34)ccc2o1 [compound 25] | < 0.1 µM | < 1 µM |  | < 1 µM | < 10 µM
Nc1nc2cc(-c3nn(C4CC(O)C4)c4ncnc(N)c34)ccc2o1 (stereo not drawn) [compound 26] | < 0.1 µM |  |  | < 0.1 µM | 
CC(C)(CO)n1nc(-c2ccc3oc(N)nc3c2)c2c(N)ncnc21 [compound 27] | > 10 µM | < 1 µM |  | < 10 µM | > 10 µM
